SMILES strings stand for the structures. Where two headings read alike, the source gives them in different places.

The test system of series [1] is amylase, lipase and C-reactive protein levels. The settings on record: Example 3; for CRP: Normal 0-7.48; for Lipase: Normal 8-57; for Amylase: Normal 30-110. The text has this: (§1) A person had experienced 5 weeks of increasing back and abdominal pain prior to first dose of intravenous L-glutathione. […] The patient elected to undergo intravenous L-glutathione reduced therapy for pancreatitis.

Series [2] deals with patient with back and abdominal pain, pancreatitis. The settings on record: for Pain Score: GSH (1 gm).
From the text: as §1

Series [3] concerns patient with acute pancreatitis, abdominal pain. Description: Example 2: pain score of a patient with acute pancreatitis after a single dose of intravenous reduced L-glutathione. The class given is in vivo, human.
From the text: (§3) The patient improved substantially over a several week period on nonspecific supportive therapy but continued to require pain medication intermittently.
Series [4] deals with amylase and lipase levels. The settings on record: Example 2; for Lipase: Normal 8-57; for Amylase: Normal 30-110.
From the text: as §3
In series [5] the test system is amylase and lipase levels. The settings on record: Example 1; for Lipase: Normal 8-57; for Amylase: Normal 30-110. From the text: (§2) A patient who has experienced over 5 years of constant abdominal pain secondary to chronic pancreatitis is given intravenous reduced L-glutathione therapy.
Series [6] relates to patient with constant abdominal pain secondary to chronic pancreatitis. The settings on record: for Pain Score: GSH (1 gm) IV.
From the text: as §2

For series [7], the system named is patients with acute pancreatitis. The following applies: previous studies, cited from earlier work; for benefit in patients with acute pancreatitis: administration of n-acetylcysteine together with the antioxidants selenium and vitamin C.
The conditions of series [8]: known value; cited from earlier work.
The mark [9] stands for this setting: Jun. 3, 2008 (date of first GSH dose).
[10] abbreviates: May 22, 2008 (before first GSH dose of Jun. 3, 2008).
Setting [11] is: May 30, 2008 (before first GSH dose).
Where [12] appears, read: May 7, 2008 (date of GSH infusion).
Setting [13] is: Sep. 14, 2007 (before first GSH infusion of Sep. 28, 2007).
[14] abbreviates: Sep. 28, 2007 (date of first GSH infusion).

With `NC(CCC(=O)NC(CS)C(=O)NCC(=O)O)C(=O)O` (stereo not shown) [GSH, 2-amino-4-[[1-(carboxymethylcarbamoyl)-2-sulfanyl-ethyl]carbamoyl]butanoic acid], the CRP in series [1] (setting [9]) came to 7.84; in series [1] (Jun. 5, 2008) it was 9.11; in series [1] (Jun. 25, 2008) it was 3.97. The Lipase in series [1] (setting [9]) was found to be 112; in series [1] (Jun. 5, 2008), 152; in series [1] (Jun. 16, 2008), 89; in series [1] (Jun. 25, 2008), 60; in series [1] (setting [10]) it was 150; in series [1] (setting [11]) it was 150. Further, the Lipase in series [4] (setting [12]) is 161; in series [4] (May 9, 2008), 132; in series [5] (Jun. 27, 2008), 30; in series [5] (Nov. 5, 2007), 39; in series [5] (setting [13]) it was 108; in series [5] (setting [14]), 64. Besides, the Amylase in series [1] (setting [9]) is reported as 95; in series [1] (Jun. 5, 2008), 128; in series [1] (Jun. 16, 2008) it was 75; in series [1] (Jun. 25, 2008), 64; in series [1] (setting [10]) it was 105; in series [1] (setting [11]), 124. For the same compound, the Amylase is reported as 115 in series [4] (setting [12]); 105 in series [4] (May 9, 2008); 68 in series [5] (Jun. 27, 2008); 62 in series [5] (Nov. 5, 2007); 90 in series [5] (setting [13]); 79 in series [5] (setting [14]). The “amylase, lipase and C-reactive protein levels” value in series [1] (within a month of intravenous L-glutathione reduced therapy) is listed as “reduction”. Also, the “Pain Score” value in series [2] (Example 3, person, Jun. 3, 2008, pain medication hydrocodone) is on record as 5 of 10; in series [2] (Example 3, Jun. 4, 2008, pain medication hydrocodone), 0 of 10; in series [2] (Example 3, Jun. 5, 2008, pain medication hydrocodone) it was 2.5 of 10; in series [2] (Example 3, Jun. 6, 2008, pain medication hydrocodone) it was 4.5 of 10; in series [2] (Example 3, Jun. 9, 2008, pain medication hydrocodone) it was 3 of 10; in series [2] (Example 3, Jun. 16, 2008, pain medication None), 0 of 10. Besides, the “Pain Score” value in series [2] (Example 3, Jun. 18, 2008, pain medication None) is listed as 0 of 10; in series [2] (Example 3, Jun. 25, 2008, Back pain due to lifting furniture), 2 of 10; in series [3] (Example 2, person, GSH (1 gm) IV, May 7, 2008, pain medication hydrocodone) it was 5 of 10; in series [3] (Example 2, May 9, 2008, follow up visit only, no infusion given, pain medication None), 0 of 10; in series [6] (Example 1, person, Sep. 28, 2007, pain medication hydrocodone), 8 of 10; in series [6] (Example 1, Dec. 10, 2007, pain medication propoxyphene), 1 of 10. Besides, the “Pain Score” value in series [6] (Example 1, Dec. 17, 2007, pain medication None) is given as 0 of 10; in series [6] (Example 1, Jan. 3, 2008, pain medication None) it was 0 of 10; in series [6] (Example 1, Nov. 12, 2007, pain medication propoxyphene), 1 of 10; in series [6] (Example 1, Oct. 10, 2007, pain medication propoxyphene), 5 of 10; in series [6] (Example 1, Oct. 29, 2007, pain medication propoxyphene) it was 2 of 10. The pain result in series [2] (Example 3, within a month of intravenous L-glutathione reduced therapy) is reported as “significant decrease in pain”. The “pain and enzyme levels” value in series [3] (Example 2, single dose of intravenous reduced L-glutathione) is “responded to a single dose”. Also, the “amylase and lipase levels” value in series [5] (during the course of treatment) is recorded as “significantly reduced”. Also, the “Pain reported by the patient” value in series [6] (Example 1, within four months of initiating reduced L-glutathione therapy) is on record as “absence of pain”. Also, the “effect on multiple organ functions in patients with acute pancreatitis” value in series [7] (administration of glutathione) is “protective effect”.
For `CC(C)OC(=O)CNC(=O)[C@H](CS)NC(=O)CC[C@H](N)C(=O)O` [glutathione isopropyl ester], in series [8], the “toxicity LD 50 value” is “about 5.3 g/kg”.
As to `COc1ccc2c3c1O[C@H]1C(=O)CC[C@H]4[C@@H](C2)N(C)CC[C@]314` [hydrocodone, reference compound], the pain in series [3] (Example 2, May 7, 2008, pain described as 10/10, relieved with hydrocodone taken at home, before GSH) is recorded as 5 /10.
Regarding `CC(=O)N[C@@H](CS)C(=O)O` [n-acetylcysteine, reference compound], the “benefit in patients with acute pancreatitis” value (shortened to “benefit in patients”) in series [7] was “failed to show any benefit”.
For the compound `[Se]` [selenium], in series [7], the “benefit in patients” value is “failed to show any benefit”.
On to `O=C1O[C@H]([C@@H](O)CO)C(O)=C1O` [vitamin C, reference compound], for which, in series [7], the “benefit in patients” value is “failed to show any benefit”.

(Values after US9289462B2, “Method for medical treatment utilizing glutathione” (priority 2008, dated 2016).)
